{"source": "patent US10736906B2", "about": "“Method to enhance tissue regeneration” (CHILDREN'S MEDICAL CENTER CORPORATION, priority 2006, dated 2020)", "key": {"bone marrow": {"system": "bone marrow", "test": "bone marrow recovery following 5-FU chemical injury in APCMin/+ mice", "type": "in vivo", "conditions": "1 mg/kg every 48 hrs, after 5-FU", "experimental": "It has been hypothesized that wnt activation regulates HSC self-renewal and repopulation. Wnt activation is also thought to be involved in carcinogenesis, however, making the concept of direct enhancement of wnt signaling problematic. Whether regulation of wnt activity by prostaglandin can effectively modulate HSC homeostasis in the adult, was determined by observing hematopoietic recovery following irradiation in the zebrafish. […] APCMin/+ mice have elevated β-catenin levels due to loss of APC function in the destruction complex."}, "[1]": {"system": "cKit+Sca1+ Lineage- (KSL) bone marrow cells", "test": "murine transplantation assay with purified HSCs, CFU-S12", "type": "in vivo, mice", "conditions": "concurrent administration with BIO; indomethacin 1 mg/kg and 2.5 mg/kg", "experimental": "To assess whether prostaglandin levels regulate wnt activity in HSCs, murine transplantation assays were performed utilizing purified HSCs. FACS-isolated cKit+Sca1+ Lineage—(KSL) bone marrow cells were transplanted into lethally irradiated recipients."}, "[2]": {"system": "endodermal and hepatic progenitor cells", "test": "endodermal progenitors (foxA3) and liver size (lfabp) in zebrafish embryos, in situ hybridization", "type": "in vivo", "description": "To determine whether the interaction of PGE2 and wnt/β-catenin signaling is a conserved regulator of stem and progenitor cell populations in other tissues, endodermal and hepatic progenitor cells were examined during zebrafish development. […] ( 51/56), as detected by expression of liver fatty acid binding protein (lfabp). […] This finding is supported by the detection of various components of PGE2 signaling in foxA3 positive cells.\nThe APC mutant zebrafish to model constitutive activation of the wnt signaling pathway, was used to characterize the effects of the wnt/PG interaction in foxA3+ endodermal progenitors at 48 hpf. APC+/− embryos have enhanced foxA3 expression and an increased liver bud ( 88/93) as well as increased liver size ( 68/75) compared to wild-type siblings. […] Both cyclinD1 and cmyc were co-regulated by wnt and prostaglandin during development which may indicate that PGE2 exerts its effects on stem cells through enhanced cell cycling and proliferation.\nIn situ hybridization: Paraformaldehyde (PFA)-fixed embryos were processed for in situ hybridization using standard zebrafish protocols such as those found on the internet at, for example, ZFIN: The Zebrafish Model Organism Database (hosted by the Univ. Oregon, Eugene, Oreg.). The following RNA probes were used to detect alterations in endodermal and liver development: GFP, LFABP, sterol carrier protein, transferrin, foxA3, insulin, trypsin, and IFABP. Changes in expression compared to wild-type controls are reported as the # altered/# scored per genotype; a minimum of three independent experiments were conducted per analysis."}, "wnt activity": {"system": "wnt activity", "test": "wnt activity in TOP:dGFP wnt reporter zebrafish embryos (in situ hybridization and qPCR for GFP)", "type": "in vivo", "conditions": "for wnt activity in the developing brain, liver and gut: developing zebrafish, TOP:dGFP", "description": "An embodiment of the present invention provides for manipulation of the genetic interaction between PGE2 and wnt/β-catenin signaling, which regulates developmental specification of stem cells and regeneration. Briefly, prostaglandin (PG) E2 is required for the formation and function of hematopoietic stem cells (HSCs) in vivo, yet its mechanism of action in these cells is not completely understood.\nThe following RNA probes were used to detect alterations in endodermal and liver development: GFP, LFABP, sterol carrier protein, transferrin, foxA3, insulin, trypsin, and IFABP. Changes in expression compared to wild-type controls are reported as the # altered/# scored per genotype; a minimum of three independent experiments were conducted per analysis."}, "liver tumor": {"system": "liver tumor", "test": "zebrafish DMBA liver tumor model, ultrasound biomicroscopy", "type": "in vivo", "description": "Although zebrafish are a valuable vertebrate model to study carcinogenesis, noninvasive imaging remains challenging because adult fish are not transparent. Tumors can be readily detected in vivo, however, using high-resolution microscopic ultrasound. This technique facilitates tissue perfusion calculations, cellular aspirates, tumor progression analysis, and responses to treatment. Ultrasound biomicroscopy allows longitudinal studies of tumor development and real-time assessment of therapeutic effects in the zebrafish model. The visualization techniques employed herein are described by Goessling et al., 4(7) Nature Methods 551-53 (2007). […] Tumor occurrence was monitored over about five months. Tumors were identified by ultrasound biomicroscopy. The cancerous fish were then treated with indomethacin for twelve hours over night, every three days for one month, and the tumors visualized as described. Goessling et al., 2007. […] After one month of drug treatment, the fish appeared healthy, but were sacrificed to confirm the presence of cancer by histology. […] In another experiment, detailed in FIG. 10B and FIG. 10C, fish were treated every week for tumor prevention. Here, treatment with the carcinogen led to liver tumors in wild-type fish, and to twice as many tumors in APC+/− mutant fish."}, "β-catenin": {"system": "β-catenin", "test": "partial hepatectomy in wild-type and APCMin/+ mice (IHC, western blot, BrdU)", "type": "in vivo", "description": "Here, APC mutation caused increased total and nuclear β-catenin levels, particularly in the periportal region. […] These findings were confirmed by western blot. β-catenin may cause increased cell proliferation through its target cyclin D1.\nAdditionally, the present invention provides the first example that the activation of wnt/β-catenin signaling can enhance the rate of liver regeneration. […] Furthermore, the regeneratice advantage is evolutionarily conserved following hepatectomy in APCMin/+ mice. (Murine liver resections were performed as described in Green & Puder, 16 J. Investigational Surgery 99-102 (2003). Thus, the present invention provides for the manipulation of the wnt/β-catenin pathway as a way to enhance liver regeneration in patients, either after liver resection or during recovery from acute liver failure induced by toxins such as acetaminophen."}}, "note": "“Also recorded” adds a separate entry of the source.", "data": [{"smiles": "COc1ccc2c(c1)c(CC(=O)O)c(C)n2C(=O)c1ccc(Cl)cc1", "note": "[indomethacin]", "values": [{"measurement": "effect on the proliferative advantage (bone marrow recovery) in APCMin/+ mice", "setting": "bone marrow", "result": "markedly diminished the proliferative advantage"}, {"measurement": "effect on BIO-enhanced CFU-S number", "setting": "[1]", "result": "blocks this effect; also recorded: diminished CFU-S number back to baseline levels"}, {"measurement": "decrease in liver size (# altered/# scored)", "setting": "[2]; APC+/− embryos", "result": "61/67"}, {"measurement": "decrease in foxA3 positive progenitor cells (# altered/# scored)", "setting": "[2]; APC+/− embryos, 48 hpf", "result": "33/39"}, {"measurement": "decreased foxA3 expression (# altered/# scored)", "setting": "[2]; wild-type embryos", "result": "67/71"}, {"measurement": "smaller liver, lfabp expression (# altered/# scored)", "setting": "[2]; wild-type embryos, 72 h.p.f.", "result": "51/56"}, {"measurement": "liver size / liver development compared to controls", "setting": "[2]; zebrafish embryos, by 72 hours post-fertilization", "result": "marked reduction in liver size"}, {"measurement": "wnt activity in the developing brain, liver and gut", "setting": "wnt activity", "result": "diminished wnt activity"}, {"measurement": "wnt activity in the developing brain, liver and gut", "setting": "wnt activity; listed as indomethicin", "result": "virtual absence of wnt signaling"}, {"measurement": "wnt activity abolished in the AGM and GFP expression markedly decreased globally (# altered/# scored)", "setting": "wnt activity; indomethacin 10 μM", "result": "72/87"}, {"measurement": "solid portion of the tumor, ultrasound", "setting": "liver tumor; after six treatments", "result": "decreased in size"}, {"measurement": "tumor size, ultrasound", "setting": "liver tumor; after ten treatments", "result": "shrunk substantially"}, {"measurement": "tumor size, ultrasound", "setting": "liver tumor; after three treatments (12 h overnight every three days)", "result": "tumor size increased"}, {"measurement": "liver tumor formation (prevention)", "setting": "liver tumor; weekly treatment, wild-type and especially APC+/− fish", "result": "decreased tumor formation"}, {"measurement": "β-catenin levels", "setting": "β-catenin; 2.5 mg/kg bid sq, both genotypes", "result": "decreased β-catenin levels significantly"}, {"measurement": "Cyclin D1 levels and cell proliferation (BrdU incorporation)", "setting": "β-catenin; APCMin/+ mice", "result": "markedly diminished"}, {"measurement": "P-GSK3b (serine 9), IHC", "setting": "β-catenin; wild-type and APC+/− mice, confirmed by western blot", "result": "decreased amounts"}]}]}
